One data set addresses PfFabG (Plasmodium falciparum, UniProt Q8I2S7). Nature of the data set: biochemical. The class given is biochemical.
Data set [1] is described as follows: Cytotoxicity against L6 cells. Type of data set: cell-based, rat. The settings on record: rat.
The next data set concerns P. yoelii liver stages. Put plainly: Liver stage growth inhibition, immunofluorescence analysis. The settings on record: Plasmodium yoelii, 43 h, read-out: IC50 P. yoelii LS IFA. Type of data set: cell-based.
For data set [2], the system named is P. yoelii liver stages (PyGFP sporozoites). Nature of the data set: Liver stage growth inhibition, flow cytometric. The class given is cell-based. The settings on record: Plasmodium yoelii, 43 h, read-out: IC50 P. yoelii LS FC. On the technique in general: Flow cytometry measures light scatter and fluorescence of single cells or particles in a stream.
The target of another data set is T1, PfFabZ (Plasmodium falciparum, UniProt Q965D7).
T1 sequence (Q965D7 19-230): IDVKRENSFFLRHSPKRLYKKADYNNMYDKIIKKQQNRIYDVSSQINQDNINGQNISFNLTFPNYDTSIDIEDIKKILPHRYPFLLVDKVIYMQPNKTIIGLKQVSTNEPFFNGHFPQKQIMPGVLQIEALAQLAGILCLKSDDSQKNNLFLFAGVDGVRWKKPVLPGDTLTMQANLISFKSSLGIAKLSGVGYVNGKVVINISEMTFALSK
Nature of the data set: biochemical. The class given is biochemical.

In a further data set the test system is HepG2:CD81 cells. Put plainly: Toxicity to hepatoma cells. Type of data set: cell-based. The settings on record: FC (7-AAD) or IFA (DAPI).
For data set [3], the target named is mycobacterial InhA (MtFabI) enzyme. As to conditions: read-out: Ki InhA (MtFabI); competitive inhibition; cited from earlier work.
For a further data set, the system named is P. falciparum K1 strain. The class given is cell-based. The settings on record: Plasmodium falciparum, K1, read-out: IC50 P. falciparum BS.
For the next data set, the target named is T2, PfFabI (Plasmodium falciparum, UniProt Q9BH77).
T2 sequence (Q9BH77 22-432): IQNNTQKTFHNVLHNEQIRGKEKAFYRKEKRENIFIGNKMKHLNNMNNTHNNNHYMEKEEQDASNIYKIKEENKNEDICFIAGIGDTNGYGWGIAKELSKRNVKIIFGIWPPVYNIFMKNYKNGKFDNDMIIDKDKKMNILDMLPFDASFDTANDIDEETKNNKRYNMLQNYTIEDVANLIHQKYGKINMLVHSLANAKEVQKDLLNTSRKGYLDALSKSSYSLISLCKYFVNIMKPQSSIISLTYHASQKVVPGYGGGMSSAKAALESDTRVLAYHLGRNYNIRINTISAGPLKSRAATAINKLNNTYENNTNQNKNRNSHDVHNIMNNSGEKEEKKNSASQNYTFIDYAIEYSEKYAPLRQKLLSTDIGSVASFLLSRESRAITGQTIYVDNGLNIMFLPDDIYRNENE
Nature of the data set: biochemical. Type of data set: biochemical. As to conditions: for Ki: Ki PfFabI.

Data set [4] concerns L. donovani strain MHOM/ET/67/L82. Put plainly: Leishmanicidal activity, axenic amastigotes. Type of data set: cell-based. As to conditions: Leishmania donovani, 72 h, read-out: IC50 Leishmania donovani.
For the next data set, the system named is L6 cells. Nature of the data set: Cytotoxicity against L6 cells. Type of data set: cell-based, rat. As to conditions: highest test concentration 90 μg/ml.
In another data set the test system is LS development. As to conditions: cited from earlier work.
Data set [5] concerns late liver phases of P. berghei. The settings on record: cited from earlier work.

Molecules are shown by their SMILES. Values after ≈ are worked out from the molar mass of the structure shown. Values joined by “and” are separate entries in the source; they are usually repeats but may differ in a detail not shown here. Identical values can stand only once.

The IC50 is the concentration needed to halve the response being measured. Consider `CCCCCCCCCC#CCCCCC(=O)O` [6-HDA, 6-Hexadecynoic acid], for which, at PfFabG, the half-inhibitory concentration (IC50) was greater than 396000 nM.

The Ki is the dissociation constant of the complex between target and ligand, obtained from inhibition or displacement. Molecule `CCCCCCCCCCCCCC#CC(=O)O` [2-HDA, 2-Hexadecynoic acid] gave an IC50 at 72 h in data set [1] of 85.9 µg/mL (≈ 340 µM). Further, the IC50 in the data set with P. yoelii liver stages is 4.88 µg/mL (≈ 19.3 µM); in [2] it was 15.3 µg/mL (≈ 60.6 µM); against PfFabZ it was 2300 nM; in the data set on P. falciparum K1 strain, 10.4 µg/mL (≈ 41.2 µM); on PfFabG, 13900 nM; against PfFabI it was 1510 nM. Further, the IC50 in data set [4] was found to be 4.5 µg/mL (≈ 17.8 µM). Moreover, the “Inhibition type PfFabZ” value on PfFabZ (with respect to the substrate) was “competitive”. Moreover, the “Toxicity against HepG2:CD81 hepatoma cells (in words)” value in the data set with HepG2:CD81 cells is reported as “non-toxic”. Also, the Ki in [3] is 2100 ± 600 nM; at PfFabG (Ki PfFabG, cofactor NADPH varied), 6000 nM; on PfFabI (cofactor (NADH) varied), 2580 nM; at PfFabI (substrate (crotonyl-CoA) varied), 2890 nM and 2900 nM. In addition, the figures for the “Inhibition type PfFabG” value on PfFabG (cofactor NADPH varied) and on PfFabG (substrate acetoacetyl-CoA varied) were “non-competitive” and “competitive”, respectively. The “Inhibition type PfFabI” value at PfFabI (with respect to crotonyl-CoA and the cofactor NADH) is “non-competitive”.

For `CCCCCCCCCCCCCCCC(=O)O` [PA, Palmitic acid, reference compound], the IC50 on PfFabG and against PfFabI was greater than 390000 nM throughout.

`CCCCCCCCCCC#CCCCC(=O)O` [5-HDA, 5-Hexadecynoic acid]: the “Toxicity against L6 cells (in words)” value in the data set on L6 cells is “completely non-toxic”. In addition, on PfFabG, the IC50 was greater than 396000 nM.

As to `Oc1c(Cl)cc(Cl)c(Cl)c1Cc1c(O)c(Cl)cc(Cl)c1Cl` [hexachlorophene], the “IC50 LS development in vitro” value in the data set with LS development was 1.95 µg/mL (≈ 4.79 µM). For the same molecule, the IC50 in the data set with LS development (read-out: IC50 LS development in vitro) was 4800 nM.

Consider `Oc1cc(Cl)ccc1Oc1ccc(Cl)cc1Cl` [triclosan], for which the “IC50 late liver phases of P. berghei” value in data set [5] is 11.4 µg/mL. The IC50 in data set [5] (read-out: IC50 late liver phases of P. berghei) was 39400 nM.

With `CCCCCCC#CCCCCCCCC(=O)O` [9-HDA, 9-Hexadecynoic acid], the IC50 with P. falciparum K1 strain is 10.3 µg/mL (≈ 40.8 µM); against PfFabG, greater than 396000 nM.

(Values after paper PMC2981824 (Bioorganic & medicinal chemistry, 2010).)
